How the values were obtained:
[1] = target: Mitogen-activated protein kinase 11 (Homo sapiens) (UniProt Q15759); assay: Inhibition of p38beta at 10 uM assessed as residual activity by [33P]ATP radioactive filter binding assay relative to control
[2] = target: Serine/threonine-protein kinase pim-3 (Homo sapiens) (UniProt Q86V86); assay: Inhibition of PIM3 at 10 uM assessed as residual activity by [33P]ATP radioactive filter binding assay relative to control
[3] = target: Interleukin-1 receptor-associated kinase 4 (Homo sapiens) (UniProt Q9NWZ3); assay: Inhibition of IRAK4 at 10 uM assessed as residual activity by [33P]ATP radioactive filter binding assay relative to control
[4] = target: Ribosomal protein S6 kinase alpha-3 (Homo sapiens) (UniProt P51812); assay: Inhibition of RSK2 at 10 uM assessed as residual activity by [33P]ATP radioactive filter binding assay relative to control
[5] = target: Mitogen-activated protein kinase 13 (Homo sapiens) (UniProt O15264); assay: Inhibition of p38delta at 10 uM assessed as residual activity by [33P]ATP radioactive filter binding assay relative to control
[6] = target: Mitogen-activated protein kinase kinase kinase 9 (Homo sapiens) (UniProt P80192); assay: Inhibition of MLK1 at 10 uM assessed as residual activity by [33P]ATP radioactive filter binding assay relative to control
[7] = target: Protein kinase C alpha type (Homo sapiens) (UniProt P17252); assay: Inhibition of PKCalpha at 10 uM assessed as residual activity by [33P]ATP radioactive filter binding assay relative to control
[8] = target: Mitogen-activated protein kinase 3 (Homo sapiens) (UniProt P27361); assay: Inhibition of ERK1 at 10 uM assessed as residual activity by [33P]ATP radioactive filter binding assay relative to control
[9] = target: Serine/threonine-protein kinase PAK 6 (Homo sapiens) (UniProt Q9NQU5); assay: Inhibition of PAK6 at 10 uM assessed as residual activity by [33P]ATP radioactive filter binding assay relative to control
[10] = target: MAP kinase-activated protein kinase 5 (Homo sapiens) (UniProt Q8IW41); assay: Inhibition of PRAK at 10 uM assessed as residual activity by [33P]ATP radioactive filter binding assay relative to control
[11] = target: Dual specificity protein kinase TTK (Homo sapiens) (UniProt P33981); assay: Inhibition of TTK at 10 uM assessed as residual activity by [33P]ATP radioactive filter binding assay relative to control
[12] = Inhibition of PKA at 10 uM assessed as residual activity by [33P]ATP radioactive filter binding assay relative to control
[13] = target: Cyclin-dependent kinase 2/cyclin A (Homo sapiens) (UniProt P24941+P20248+P78396); assay: Inhibition of CDK2/Cyclin A at 10 uM assessed as residual activity by [33P]ATP radioactive filter binding assay relative to control; type: protein-complex assay
[14] = target: Rho-associated protein kinase 2 (Homo sapiens) (UniProt O75116); assay: Inhibition of ROCK2 at 10 uM assessed as residual activity by [33P]ATP radioactive filter binding assay relative to control
[15] = target: Ribosomal protein S6 kinase alpha-1 (Homo sapiens) (UniProt Q15418); assay: Inhibition of RSK1 at 10 uM assessed as residual activity by [33P]ATP radioactive filter binding assay relative to control
[16] = target: Inhibitor of nuclear factor kappa-B kinase subunit epsilon (Homo sapiens) (UniProt Q14164); assay: Inhibition of IKKepsilon at 10 uM assessed as residual activity by [33P]ATP radioactive filter binding assay relative to control
[17] = target: MAP/microtubule affinity-regulating kinase 3 (Homo sapiens) (UniProt P27448); assay: Inhibition of MARK3 at 10 uM assessed as residual activity by [33P]ATP radioactive filter binding assay relative to control
[18] = target: Serine/threonine-protein kinase Nek2 (Homo sapiens) (UniProt P51955); assay: Inhibition of NEK2a at 10 uM assessed as residual activity by [33P]ATP radioactive filter binding assay relative to control
[19] = target: Serine/threonine-protein kinase PLK1 (Homo sapiens) (UniProt P53350); assay: Inhibition of PLK1 at 10 uM assessed as residual activity by [33P]ATP radioactive filter binding assay relative to control
[20] = target: Tyrosine-protein kinase Lck (Homo sapiens) (UniProt P06239); assay: Inhibition of Lck at 10 uM assessed as residual activity by [33P]ATP radioactive filter binding assay relative to control
[21] = target: Tyrosine-protein kinase Yes (Homo sapiens) (UniProt P07947); assay: Inhibition of YES1 at 10 uM assessed as residual activity by [33P]ATP radioactive filter binding assay relative to control
[22] = target: Misshapen-like kinase 1 (Homo sapiens) (UniProt Q8N4C8); assay: Inhibition of MINK1 at 10 uM assessed as residual activity by [33P]ATP radioactive filter binding assay relative to control
[23] = target: Serine/threonine-protein kinase D1 (Homo sapiens) (UniProt Q15139); assay: Inhibition of PKD1 at 10 uM assessed as residual activity by [33P]ATP radioactive filter binding assay relative to control
[24] = target: Maternal embryonic leucine zipper kinase (Homo sapiens) (UniProt Q14680); assay: Inhibition of MELK at 10 uM assessed as residual activity by [33P]ATP radioactive filter binding assay relative to control
[25] = target: Ephrin type-A receptor 2 (Homo sapiens) (UniProt P29317); assay: Inhibition of EPHA2 at 10 uM assessed as residual activity by [33P]ATP radioactive filter binding assay relative to control
[26] = target: Tyrosine-protein kinase BTK (Homo sapiens) (UniProt Q06187); assay: Inhibition of BTK at 10 uM assessed as residual activity by [33P]ATP radioactive filter binding assay relative to control
[27] = target: Casein kinase I isoform alpha (Homo sapiens) (UniProt P48729); assay: Inhibition of CK1 at 10 uM assessed as residual activity by [33P]ATP radioactive filter binding assay relative to control
[28] = target: Dual specificity tyrosine-phosphorylation-regulated kinase 2 (Homo sapiens) (UniProt Q92630); assay: Inhibition of DYRK2 at 10 uM assessed as residual activity by [33P]ATP radioactive filter binding assay relative to control
[29] = target: Tyrosine-protein kinase SYK (Homo sapiens) (UniProt P43405); assay: Inhibition of SYK at 10 uM assessed as residual activity by [33P]ATP radioactive filter binding assay relative to control
[30] = target: Mitogen-activated protein kinase 10 (Homo sapiens) (UniProt P53779); assay: Inhibition of JNK3 at 10 uM assessed as residual activity by [33P]ATP radioactive filter binding assay relative to control
[31] = cells; details: Mus musculus, BaF3, 96 h
Description: Growth inhibition of mouse BA/F3 cells expressing EGFR Del1 mutant after 96 hrs by cell titer-glo assay

[32] = cells; details: Mus musculus, BaF3, 96 h; remark: listed apart in the source
Description: Growth inhibition of mouse BA/F3 cells expressing EGFR Del3 mutant after 96 hrs by cell titer-glo assay

[33] = cells; details: Mus musculus, BaF3, 96 h; remark: listed apart in the source
Description: Growth inhibition of mouse BA/F3 cells expressing EGFR Del1 and Thr790Met mutant after 96 hrs by cell titer-glo assay

[34] = cells; details: Mus musculus, BaF3, 96 h; remark: listed apart in the source
Description: Growth inhibition of mouse BA/F3 cells expressing EGFR Del3 and Thr790Met mutant after 96 hrs by cell titer-glo assay

Sequence of Interleukin-1 receptor-associated kinase 4 (Homo sapiens) (Q9NWZ3 whole entry): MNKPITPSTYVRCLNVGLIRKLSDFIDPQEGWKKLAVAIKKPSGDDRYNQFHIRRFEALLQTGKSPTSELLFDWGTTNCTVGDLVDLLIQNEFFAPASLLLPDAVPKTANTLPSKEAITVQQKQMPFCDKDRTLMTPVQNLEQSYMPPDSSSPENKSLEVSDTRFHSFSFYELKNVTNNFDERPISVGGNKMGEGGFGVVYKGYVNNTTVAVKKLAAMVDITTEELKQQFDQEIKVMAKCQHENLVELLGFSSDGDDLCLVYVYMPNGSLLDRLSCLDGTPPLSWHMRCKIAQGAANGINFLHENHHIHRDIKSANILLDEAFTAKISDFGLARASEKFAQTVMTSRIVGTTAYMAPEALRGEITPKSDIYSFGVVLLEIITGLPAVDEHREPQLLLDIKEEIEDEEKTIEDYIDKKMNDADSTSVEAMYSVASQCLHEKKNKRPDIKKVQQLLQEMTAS
Sequence of Inhibitor of nuclear factor kappa-B kinase subunit epsilon (Homo sapiens) (Q14164 whole entry): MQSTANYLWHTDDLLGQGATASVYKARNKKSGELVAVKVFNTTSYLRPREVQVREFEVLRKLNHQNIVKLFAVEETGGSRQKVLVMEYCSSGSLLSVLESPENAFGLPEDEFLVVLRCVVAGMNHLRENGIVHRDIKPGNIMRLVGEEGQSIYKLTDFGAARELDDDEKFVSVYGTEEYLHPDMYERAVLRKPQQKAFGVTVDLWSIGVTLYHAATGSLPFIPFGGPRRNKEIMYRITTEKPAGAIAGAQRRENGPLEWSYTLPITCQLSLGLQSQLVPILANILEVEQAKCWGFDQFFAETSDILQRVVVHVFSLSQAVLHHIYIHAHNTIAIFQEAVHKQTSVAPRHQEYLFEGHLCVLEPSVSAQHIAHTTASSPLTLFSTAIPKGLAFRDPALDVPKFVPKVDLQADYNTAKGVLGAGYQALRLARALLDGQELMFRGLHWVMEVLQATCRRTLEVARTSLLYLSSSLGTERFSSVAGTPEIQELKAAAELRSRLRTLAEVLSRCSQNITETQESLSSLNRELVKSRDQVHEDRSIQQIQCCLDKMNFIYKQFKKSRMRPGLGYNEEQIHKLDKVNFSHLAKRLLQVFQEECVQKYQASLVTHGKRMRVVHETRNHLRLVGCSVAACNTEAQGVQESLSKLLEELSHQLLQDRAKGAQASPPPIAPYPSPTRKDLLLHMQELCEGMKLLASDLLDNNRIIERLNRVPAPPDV
Sequence of Serine/threonine-protein kinase PLK1 (Homo sapiens) (P53350 whole entry): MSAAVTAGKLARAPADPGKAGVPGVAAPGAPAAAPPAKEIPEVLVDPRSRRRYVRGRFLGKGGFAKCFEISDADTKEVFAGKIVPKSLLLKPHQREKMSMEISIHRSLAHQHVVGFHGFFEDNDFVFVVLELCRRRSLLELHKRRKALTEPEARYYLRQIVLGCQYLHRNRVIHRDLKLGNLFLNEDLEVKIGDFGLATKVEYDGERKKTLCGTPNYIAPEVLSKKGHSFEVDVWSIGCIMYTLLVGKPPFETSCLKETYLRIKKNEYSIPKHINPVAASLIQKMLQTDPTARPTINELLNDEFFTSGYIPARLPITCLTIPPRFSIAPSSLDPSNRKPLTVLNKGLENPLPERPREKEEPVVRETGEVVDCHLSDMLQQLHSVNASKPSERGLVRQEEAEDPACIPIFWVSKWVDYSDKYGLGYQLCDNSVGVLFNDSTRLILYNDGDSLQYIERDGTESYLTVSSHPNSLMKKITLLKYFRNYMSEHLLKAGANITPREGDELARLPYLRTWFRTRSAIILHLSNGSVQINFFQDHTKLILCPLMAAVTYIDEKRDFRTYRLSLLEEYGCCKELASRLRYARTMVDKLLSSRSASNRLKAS
Sequence of Rho-associated protein kinase 2 (Homo sapiens) (O75116 whole entry, looked up): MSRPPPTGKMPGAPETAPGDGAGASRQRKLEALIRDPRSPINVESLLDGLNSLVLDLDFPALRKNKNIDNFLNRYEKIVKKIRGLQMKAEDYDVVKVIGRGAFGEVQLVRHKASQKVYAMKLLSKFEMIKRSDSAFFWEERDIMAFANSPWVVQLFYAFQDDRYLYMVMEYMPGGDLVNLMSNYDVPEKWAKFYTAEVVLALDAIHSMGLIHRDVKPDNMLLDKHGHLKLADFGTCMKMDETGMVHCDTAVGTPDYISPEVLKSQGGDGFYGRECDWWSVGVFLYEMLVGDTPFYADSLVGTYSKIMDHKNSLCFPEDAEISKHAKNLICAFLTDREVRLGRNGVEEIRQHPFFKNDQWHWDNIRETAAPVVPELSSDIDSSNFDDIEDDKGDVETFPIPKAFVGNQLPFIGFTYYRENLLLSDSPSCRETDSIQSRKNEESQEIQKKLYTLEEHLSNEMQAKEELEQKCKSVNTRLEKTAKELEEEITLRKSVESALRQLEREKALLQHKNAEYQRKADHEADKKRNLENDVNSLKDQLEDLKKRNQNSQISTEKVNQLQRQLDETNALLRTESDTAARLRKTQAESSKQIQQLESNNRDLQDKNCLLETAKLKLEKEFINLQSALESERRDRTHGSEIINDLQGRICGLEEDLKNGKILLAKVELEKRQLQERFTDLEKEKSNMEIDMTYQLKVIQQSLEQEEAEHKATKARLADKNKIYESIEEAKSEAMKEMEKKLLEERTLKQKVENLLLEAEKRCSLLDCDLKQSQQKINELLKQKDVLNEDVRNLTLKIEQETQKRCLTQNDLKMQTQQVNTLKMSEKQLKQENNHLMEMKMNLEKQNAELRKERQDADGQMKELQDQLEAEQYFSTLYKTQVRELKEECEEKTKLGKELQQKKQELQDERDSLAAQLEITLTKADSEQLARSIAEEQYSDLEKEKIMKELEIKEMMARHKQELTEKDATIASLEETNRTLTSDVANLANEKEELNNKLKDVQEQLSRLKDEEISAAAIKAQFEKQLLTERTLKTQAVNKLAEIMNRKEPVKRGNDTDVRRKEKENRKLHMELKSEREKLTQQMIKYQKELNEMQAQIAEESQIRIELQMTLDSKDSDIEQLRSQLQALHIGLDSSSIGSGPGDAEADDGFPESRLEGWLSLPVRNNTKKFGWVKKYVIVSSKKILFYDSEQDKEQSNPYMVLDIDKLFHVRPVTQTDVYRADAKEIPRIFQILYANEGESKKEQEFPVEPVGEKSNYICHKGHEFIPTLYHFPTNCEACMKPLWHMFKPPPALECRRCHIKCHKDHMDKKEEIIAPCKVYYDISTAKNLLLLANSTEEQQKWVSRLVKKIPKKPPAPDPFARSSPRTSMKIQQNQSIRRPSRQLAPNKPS
Sequence of Mitogen-activated protein kinase kinase kinase 9 (Homo sapiens) (P80192 whole entry, looked up): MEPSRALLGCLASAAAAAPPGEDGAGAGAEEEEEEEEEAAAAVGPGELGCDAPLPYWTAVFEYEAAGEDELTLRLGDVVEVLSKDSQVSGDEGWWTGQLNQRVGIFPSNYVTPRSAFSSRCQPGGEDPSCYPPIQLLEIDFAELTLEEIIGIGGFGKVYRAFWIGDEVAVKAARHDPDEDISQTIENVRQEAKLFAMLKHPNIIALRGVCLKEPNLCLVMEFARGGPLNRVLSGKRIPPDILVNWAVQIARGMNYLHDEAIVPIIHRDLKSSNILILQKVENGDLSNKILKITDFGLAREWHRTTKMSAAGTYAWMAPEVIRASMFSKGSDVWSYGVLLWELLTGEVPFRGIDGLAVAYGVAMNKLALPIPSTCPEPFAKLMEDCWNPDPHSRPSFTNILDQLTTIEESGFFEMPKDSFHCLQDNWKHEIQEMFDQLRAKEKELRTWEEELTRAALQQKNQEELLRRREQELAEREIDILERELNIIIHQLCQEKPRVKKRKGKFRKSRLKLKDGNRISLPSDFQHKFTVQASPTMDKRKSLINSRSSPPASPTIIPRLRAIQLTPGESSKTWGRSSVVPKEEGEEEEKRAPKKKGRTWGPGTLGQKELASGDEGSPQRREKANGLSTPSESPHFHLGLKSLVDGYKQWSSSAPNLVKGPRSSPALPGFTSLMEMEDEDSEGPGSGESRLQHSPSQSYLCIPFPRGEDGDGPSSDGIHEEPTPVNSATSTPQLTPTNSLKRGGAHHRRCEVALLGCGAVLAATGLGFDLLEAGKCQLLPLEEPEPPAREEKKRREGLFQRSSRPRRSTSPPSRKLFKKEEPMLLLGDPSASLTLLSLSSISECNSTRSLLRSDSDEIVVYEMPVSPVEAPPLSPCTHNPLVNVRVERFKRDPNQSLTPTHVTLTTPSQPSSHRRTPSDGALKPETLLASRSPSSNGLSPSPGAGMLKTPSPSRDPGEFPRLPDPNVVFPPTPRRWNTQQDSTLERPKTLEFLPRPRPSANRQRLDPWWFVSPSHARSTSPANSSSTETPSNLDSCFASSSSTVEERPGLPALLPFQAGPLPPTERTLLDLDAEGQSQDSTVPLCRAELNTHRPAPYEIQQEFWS
Sequence of Casein kinase I isoform alpha (Homo sapiens) (P48729 2-337 limits assumed): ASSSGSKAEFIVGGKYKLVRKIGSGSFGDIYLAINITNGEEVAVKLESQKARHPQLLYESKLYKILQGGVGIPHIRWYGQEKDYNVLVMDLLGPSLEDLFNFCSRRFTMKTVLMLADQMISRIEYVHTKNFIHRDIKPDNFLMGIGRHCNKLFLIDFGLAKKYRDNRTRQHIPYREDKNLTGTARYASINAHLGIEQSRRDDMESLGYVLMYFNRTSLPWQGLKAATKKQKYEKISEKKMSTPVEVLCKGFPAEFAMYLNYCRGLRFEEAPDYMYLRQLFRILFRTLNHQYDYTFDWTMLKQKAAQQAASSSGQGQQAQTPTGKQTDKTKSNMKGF

| Activity [1] | Activity [2] | Activity [3] | Activity [4] | Activity [5] | Activity [6] | Activity [7] | Activity [8] | Activity [9] | Activity [10] | Activity [11] | Activity [12] | Activity [13] | Activity [14] | Activity [15] | Activity [16] | Activity [17] | Activity [18] | Activity [19] | Activity [20] | SMILES | also measured |
| --- | --- | --- | --- | --- | --- | --- | --- | --- | --- | --- | --- | --- | --- | --- | --- | --- | --- | --- | --- | --- | --- |
| 63% | 66% | 70% | 74% | 76% | 79% | 81% | 82% | 82% | 84% | 85% | 86% | 88% | 88% | 89% | 92% | 94% | 95% | 109% | 1% | CN(C)CCCC(=O)Nc1ccc2nccc(Nc3cccc(Br)c3)c2c1 | Activity [21]: 4%; Activity [22]: 12%; Activity [23]: 14%; Activity [24]: 25%; Activity [25]: 26%; Activity [26]: 36%; Activity [27]: 44%; Activity [28]: 52%; Activity [29]: 57%; Activity [30]: 62%; GI50 [31]: < 0.5 µM; GI50 [32]: < 0.5 µM; GI50 [33]: > 0.5 µM; GI50 [34]: > 0.5 µM |
| 81% | 32% | 81% | 78% | 79% | 87% | 78% | 83% | 93% | 89% | 86% | 91% | 93% | 95% | 72% | 89% | 86% | 96% | 95% | 3% | CN(C)CCCC(=O)Nc1ccc2ncnc(Nc3cccc(Br)c3)c2c1 | Activity [21]: 7%; Activity [22]: 35%; Activity [23]: 18%; Activity [24]: 49%; Activity [25]: 53%; Activity [26]: 79%; Activity [27]: 66%; Activity [28]: 51%; Activity [29]: 67%; Activity [30]: 72%; GI50 [31]: < 0.5 µM; GI50 [32]: < 0.5 µM; GI50 [33]: > 5 µM; GI50 [34]: > 5 µM |

Reference: ChEMBL document CHEMBL1156950, “Synthesis and biological evaluation of 4-anilinoquinolines as potent inhibitors of epidermal growth factor receptor” (J Med Chem, 2010)
